Assay results reported in US11786540B2, “Gliflozins and a method for their delivery during resuscitation from cardiac arrest to improve survival outcomes” (Rosalind Franklin University of Medicine and Science, priority 2020, dated 2023).

Key:
[1] = tested on: open-chest swine model of VF; experiment: open-chest swine model of electrically-induced VF and simulated CPR using extracorporeal circulation; type: in vivo
Description: The studies were conducted in an open-chest swine model of electrically-induced VF and simulated CPR with controlled coronary blood flow (CBF) using extracorporeal circulation (ECC).^13,14 With a high degree of precision, the ECC model allowed subjecting the myocardium to low-flow reperfusion (as CPR does) after a period of ischemia during untreated VF (as it typically occurs in patients). The model reproduces adverse myocardial effects observed during CPR including increased myocardial wall thickness that is consistently ameliorated by NHE-1 inhibition. In addition, the model also reproduces post-resuscitation myocardial dysfunction which is also ameliorated by NHE-1 inhibition. In addition, the open-chest model allows for direct assessment of the myocardium via a micro-tip pressure transducer in the left ventricle to measure left ventricular pressure with high fidelity; a flow probe around the left anterior descending coronary artery to measure coronary blood flow as a surrogate of total myocardial blood flow; ultrasonic piezoelectric crystals to continuously measure the diameter (short-axis) and wall thickness of the left ventricle at the level of the mitral valve; and echocardiography to measure left ventricle volumes and wall thickness through a 4-chamber and 2-chamber views of the heart.
Therefore, we chose an EMPA dose expected to achieve a blood concentration of 1 μM after initial blood volume distribution in our swine model of VF and resuscitation by ECC. For this purpose, a stock solution was first prepared by dissolving 90.2 mg of EMPA (Sigma, St. Louis, Mo., MW 450.92) in 10 ml of 100% DMSO to obtain a 20 mM solution. This stock solution was diluted in saline to 200 μM. Given an estimated blood volume of 2.5 L for a 40-kg pig, 2.5 μmoles (i.e., 12.5 ml of the 200 μM solution) were given in bolus dose to attain the target blood concentration of 1 μM EMPA after initial blood volume distribution. […] Control pigs received 12.5 ml of 0.9% NaCl.
The bolus of EMPA or control solution was given at minute 9 of untreated VF through the venous port of the extracorporeal circuit. VF was maintained untreated for 10 minutes. ECC was then initiated and maintained for an additional 16 minutes. The ECC flow was titrated with the aid of a closed-loop system to generate and maintain a CBF of 25% of the baseline CBF, measured in the left anterior descending coronary artery.^20
Six male domestic pigs (38.2 to 43.3 kg) were fasted overnight, sedated with ketamine hydrochloride (30 mg/kg intramuscular), and anesthetized with propofol (2 mg/kg through an ear vein). The trachea was intubated with a size-7.5 orotracheal tube and positive pressure ventilation initiated with 50% oxygen using a volume-controlled ventilator (840 Ventilator System, Nellcor Puritan Bennett, Boulder, Colo.) set to deliver 10 mL/kg at a peak flow of 60 L/min with an FiO2 of 0.5. The respiratory rate was adjusted to attain an end-tidal PCO2 (PETCO2) between 38 and 42 mmHg. Anesthesia was maintained using isoflurane (1.75%-2.75%). Rectal temperature was maintained between 37.5 and 38.5° C. with a servo-controlled water-circulated blanket (Blanketrol II, Cincinnati Sub-Zero, Cincinnati, Ohio). The ECG signal was obtained during spontaneous circulation through leads placed on the right forelimb, left forelimb, and left hindlimb. During VF, the ECG signal was obtained through pads from a biphasic waveform defibrillator (E series; ZOLL Medical Corporation, Chelmsford, Mass.) placed on the shaved sides of the chest along the midaxillary line.
A 7 F fluid-filled catheter was advanced from the right femoral artery into the descending thoracic aorta to measure aortic pressure. A 7 F thermodilution balloon-tipped catheter was advanced through the right external jugular vein into the pulmonary artery to measure cardiac output, right atrial pressure, pulmonary artery pressure, and pulmonary artery occlusive pressure (Swan-Ganz, Edwards Lifesciences, Irvine, Calif.). […]

[2] = tested on: closed-chest swine model of VF; type: in vivo
Description: We used a swine model of VF and conventional closed-chest resuscitation with survival up to 240 minutes. We conducted 16 experiments in which 8 were randomized to receive EMPA and 8 to vehicle control given intravenously immediately before starting CPR.
Domestic pigs (35.2 to 39.6 kg) were sedated, anesthetized, intubated, and started on mechanical ventilation as for the experiments in the open-chest model. For blood sampling and measuring aortic pressures, a 6F dual lumen pressure monitoring catheter (Langston, Vascular Solutions) was advanced through the right femoral artery past the bifurcation and into the descending thoracic aorta. For measuring left ventricular pressures, a 7F fluid-filled pigtail catheter (Langston, Vascular Solutions) was advanced through the surgically exposed right carotid artery and into the left ventricle. For blood sampling and for measuring core temperature, cardiac output by thermodilution technique, and pressures in the right atrium and pulmonary artery, a balloon-tipped pulmonary artery catheter (Swan-Ganz, Edwards Lifesciences, Irvine, Calif.) was advanced through the right external jugular vein and into the pulmonary artery. For induction of VF, a 5F pacing electrode was advanced through the right internal jugular vein into the right ventricle (FIG. 4).
VF was induced by delivering an alternating current (1-10 mA) to the right ventricular endocardium and left untreated without ventilation for 10 minutes. At the end of untreated VF, chest compressions were started using a mechanical compressor (Michigan Thumper Model 1007, Grand Rapids, Mich.) set to compress the chest at a rate of 100 per minute with its depth titrated attempting to generate an aortic diastolic pressure of at least 25 mmHg but without exceeding a maximum compression depth of 5 cm. Ventilation with 100% oxygen was delivered using a 350-ml self-inflating pediatric bag (Lifesaver Resuscitation Bags; Teleflex Medical, N.C.). Compressions and ventilations were delivered sequentially as recommended when the airway is un-protected. Accordingly, 30 chest compressions were delivered in 18 seconds followed by 2 breaths during a 6 second compression pause. Electrical shocks were delivered through the chest pads using a biphasic waveform defibrillator (R series Zoll Corp.) with the energy set at 200-J. Shocks were delivered guided by the likelihood of successful resuscitation using an algorithm developed by us based on real-time monitoring of the VF waveform in the frequency domain known as amplitude spectral area (AMSA).^24 Epinephrine (1 mg-bolus dose; 1 ml) was delivered through the pulmonary artery catheter into the right atrium and the line flushed with 10 ml of 0.9% NaCl. The timing of epinephrine delivery was based on an AMSA advisory criterion avoiding delivery if AMSA predicted a high likelihood of shock success within the ensuing 120 seconds, with a minimum interval between doses of 240 seconds. The purpose of AMSA advisory criteria was to minimize administration of epinephrine—given its known adverse post-resuscitation effects—if not required for successful resuscitation.^25,26 Animals that achieved ROSC received 0.9% NaCl (30 ml/kg) at the maximum pump rate (999 ml/h) and were monitored for up to 240 minutes, euthanizing those that survived by delivering a right atrial bolus of KCl (150 mg/kg).
For these experiments we used a higher EMPA dose corresponding to 0.5 mg/kg.
For this purpose, a stock solution was prepared by dissolving 90.2 mg of EMPA (Sigma, St. Louis, Mo., MW 450.92) in 8 ml of 100% DMSO to obtain a […] solution. This stock solution was diluted in saline to 5 mM. Given an estimated blood volume of 2.5 L for a 40-kg pig, 44.64 μmoles (i.e., 8.9 ml of the 5 mM solution) of EMPA was given in bolus dose into the right atrium immediately before starting CPR to attain the target blood concentration of 17.8 μM (0.8026 mg/di) after initial blood volume distribution. […]

[3] = tested on: patients with type 2 diabetes; details: cited from earlier work
isolated mice hearts = details: cited from earlier work
[4] = tested on: obese rats with diastolic dysfunction; details: cited from earlier work
[5] = 25 mg oral dose in humans; cited from earlier work
isolated cardiomyocytes = details: cited from earlier work
CaMKII = details: 24 hours exposure; cited from earlier work
[6] = dose 0.5 mg/kg; cited from earlier work
ischemia-reperfusion = details: rat and swine models of ischemia-reperfusion; cited from earlier work
[7] = tested on: coronary occlusion and reperfusion; details: rat, in vivo; cited from earlier work
[8] = tested on: coronary occlusion and reperfusion; details: oral, 24 hours and 2 hours before coronary occlusion; cited from earlier work
[9] = tested on: swine model of cardiac arrest; details: given immediately before starting CPR; cited from earlier work
[10] = vs control, statistically significant

In the case of OC[C@H]1O[C@@H](c2ccc(Cl)c(Cc3ccc(O[C@H]4CCOC4)cc3)c2)[C@H](O)[C@@H](O)[C@@H]1O [EMPA, Empagliflozin], the “myocardial changes during the resuscitation effort” value ([1]; between EMPA and control groups) is reported as “no myocardial differences”, the “increases in Tau, the relaxation time constant, post-resuscitation” value ([1]; developed in control animals) is reported as “not observed” and the “progressive left ventricular wall thickening post-resuscitation” value ([1]; developed in control animals) is reported as “not observed”. For the same molecule, the “cumulative energy required to terminate VF” value ([1]; same in both groups) was 60 J, the “NE doses received post-resuscitation” value ([1]; vs control) was “lower” and the PETCO2 post-resuscitation ([1]; vs control) was “markedly higher”. For the same molecule, the heart rate post-resuscitation ([1]; vs control, n=3 per group, not statistically significant) was “lower”, the MAP post-resuscitation ([1]; vs control, n=3 per group, statistically significant) was “statistically significant higher” and the “coronary vascular resistance post-resuscitation” value ([1]; vs control, did not achieve statistical significance) was “slightly lower”. The “LAD blood flow post-resuscitation” value [1, 10] was “substantially higher”, the cardiac index post-resuscitation [1, 10] was “markedly higher” and the “left ventricular stroke work index post-resuscitation” value [1, 10] was “higher”. For the same molecule, the “stroke volume index post-resuscitation” value [1, 10] was “higher”, the “end-tidal PCO2 during CPR” value ([2]; 0.5 mg/kg, n=8, comparator 29±7) was 36±7 mmHg and the “left ventricular stroke work index post-resuscitation” value ([2]; vs comparator) was “higher”. The “mean arterial pressure post-resuscitation” value ([2]; vs comparator) was “lower”, the “stroke volume index post-resuscitation” value ([2]; vs comparator) was “higher” and the “systemic vascular resistance post-resuscitation” value ([2]; vs comparator) was “lower”. For the same molecule, the cardiac index post-resuscitation ([2]; vs comparator, average of 120, 180, 240 min) was “higher”, the “pulmonary vascular resistance post-resuscitation” value ([2]; vs comparator, not shown) was “lower” and the “reduction in the relative risk of cardiovascular death” value [3] was 38%. For the same molecule, the “risk reduction of hospitalization for heart failure” value [3] was 35%, the “onset of myocardial contracture during ischemia” value (isolated mice hearts; EMPA 1 μM, 18 minutes prior to ischemia and 25 minutes of ischemia) was “delayed” and the infarct size (isolated mice hearts; global ischemia and reperfusion) was “reduced”. The isovolumic relaxation time ([4]; after 30 minutes) was “improved”, the blood concentration ([4]; single EMPA injection, obese rats) was 8.68 µM and the blood concentration [5] was 0.69 µM. The “cytosolic sodium and cytosolic calcium” value (isolated cardiomyocytes) was “reductions”, the CaMKII activity (CaMKII) was “reduction” and the adverse effect [6] was “had not shown adverse effect”.

For Cc1ccc([C@@H]2O[C@H](CO)[C@@H](O)[C@H](O)[C@H]2O)cc1Cc1ccc(-c2ccc(F)cc2)s1 [canagliflozin], the “reductions in infarct size” value (ischemia-reperfusion) is given as “up to 60%”, the infarct size [7] is given as “reduced” and the “systolic and diastolic dysfunction” value [7] is given as “ameliorated”. The “stroke volume and cardiac output after reperfusion” value [8] was “better”.

In the case of CC(C)c1ccc(C(=O)NC(=N)N)cc1S(C)(=O)=O [cariporide], the “myocardial wall thickening and reduction in left ventricular cavity size” value [9] is given as “significant amelioration”.
